Results reported in patent publication US9249128B2 (priority 2010, dated 2016).

Assays:
[1] = target: T1, FAAH (Mus musculus, UniProt O08914); experiment: Competitive ABPP of FAAH in mouse brain proteome; format: biochemical; conditions: gel-based competitive ABPP, 10 μM inhibitor
T1 construct: from tissue; host or cells: mouse brain
T1 sequence (O08914 1-579): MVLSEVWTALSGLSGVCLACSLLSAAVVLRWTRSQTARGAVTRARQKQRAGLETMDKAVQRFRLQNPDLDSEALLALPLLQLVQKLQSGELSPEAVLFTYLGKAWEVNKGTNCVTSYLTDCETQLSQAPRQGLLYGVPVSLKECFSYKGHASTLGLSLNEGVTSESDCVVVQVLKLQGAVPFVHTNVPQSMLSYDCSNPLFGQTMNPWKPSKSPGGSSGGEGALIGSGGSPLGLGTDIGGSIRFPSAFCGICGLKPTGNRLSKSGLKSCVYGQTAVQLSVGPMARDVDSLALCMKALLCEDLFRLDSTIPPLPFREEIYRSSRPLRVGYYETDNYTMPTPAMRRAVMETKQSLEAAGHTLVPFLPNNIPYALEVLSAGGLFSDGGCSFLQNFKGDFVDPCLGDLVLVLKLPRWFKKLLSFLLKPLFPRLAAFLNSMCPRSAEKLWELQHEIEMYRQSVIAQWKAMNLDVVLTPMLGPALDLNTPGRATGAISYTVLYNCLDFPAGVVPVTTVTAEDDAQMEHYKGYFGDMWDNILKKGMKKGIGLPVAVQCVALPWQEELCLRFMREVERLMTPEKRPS
Method: (§1) For ABPP experiments, cell lysate and tissue proteomes were treated with 1 μM FP-rhodamine for 30 min at room temperature (50 μL total reaction volume) as described previously (Nomura et al., 2010). Reactions were quenched with one volume of standard 4×SDS/PAGE loading buffer (reducing), separated by SDS/PAGE (10% acrylamide), and visualized in-gel with a Hitachi FMBio IIe flatbed fluorescence scanner (MiraiBio). Inhibitors were preincubated prior (30 min or 4 h at 37° C. in vitro or in situ, respectively) to the addition of FP-rhodamine.

[2] = target: T2, brain KIAA1363 (Mus musculus, UniProt Q8BLF1); experiment: Competitive ABPP of brain proteomes from inhibitor-treated mice; format: in vivo
T2 construct: ABPP analysis of KIAA1363 activity in mouse brain membrane proteome; from tissue; host or cells: mouse brain (membrane fraction)
T2 sequence (Q8BLF1 1-408): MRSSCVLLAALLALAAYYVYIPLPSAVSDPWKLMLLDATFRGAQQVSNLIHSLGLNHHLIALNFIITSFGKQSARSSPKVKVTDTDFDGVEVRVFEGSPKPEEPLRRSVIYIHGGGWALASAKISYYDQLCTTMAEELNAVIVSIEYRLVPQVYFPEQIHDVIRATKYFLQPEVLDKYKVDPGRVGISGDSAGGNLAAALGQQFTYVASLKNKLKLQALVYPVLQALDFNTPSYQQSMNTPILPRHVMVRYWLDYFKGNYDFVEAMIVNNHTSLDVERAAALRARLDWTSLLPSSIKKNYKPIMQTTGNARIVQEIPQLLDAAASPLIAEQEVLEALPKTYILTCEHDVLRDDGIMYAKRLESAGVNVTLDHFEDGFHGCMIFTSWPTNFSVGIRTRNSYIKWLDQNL
Method: Tissues were Dounce-homogenized in PBS, pH 7.4, followed by a low-speed spin (1,400 g, 5 min) to remove debris. The supernatant was then subjected to centrifugation (100,000×g, 45 min) to provide the cytosolic fraction in the supernatant and the unsoluble fraction as a pellet. The pellet was washed and resuspended in PBS buffer by sonication. Total protein concentration in each fraction was determined using a protein assay kit (Bio-Rad). Samples were stored at −80° C. until use.
as §1
JW480 was administered by oral gavage (in PEG300, 4 μL/g mouse) or intraperitoneally (in 18:1:1 v/v/v solution of saline:ethanol:emulphor, 10 μL/g). After the indicated amount of time, mice were anesthetized with isoflurane and killed by decapitation. Tissues were removed and then flash frozen in liquid N2. Tissues were stored at −80° C. until use. Animal experiments were conducted in accordance with the guidelines of the institutional Animal Care and Use Committee of The Scripps Research Institute.

[3] = test system: PC3 tumor xenograft; experiment: PC3 tumor xenograft growth in SCID mice; format: in vivo, mouse; conditions: 80 mg/kg, oral, daily, versus vehicle
Method: (§2) Human cancer xenografts were established by transplanting cancer cell lines ectopically into the flank of C.B17 SCID mice (Taconic Farms). Briefly, cells were washed two times with PBS, trypsinized, and harvested in serum-containing medium. Next, the harvested cells were washed two times with serum-free medium and resuspended at a concentration of 2.0×10^4 cells/μL and 100 μL was injected. Growth of the tumors was measured every 3 days with calipers. For chronic JW480 treatment studies, mice were treated with JW480 or vehicle once daily (at approximately the same time everyday) by oral gavage in PEG300 (4 μL/g mouse). The treatments were initiated immediately after ectopic injection of cancer cells.

[4] = target: T3, KIAA1363 (Homo sapiens, UniProt Q6PIU2); experiment: Competitive ABPP of tumors explanted from treated mice; format: in vivo, mouse; set-up: PC3 cancer cells, which have high endogenous KIAA1363 levels; endogenous in cells; host or cells: PC3 (2-acetyl MAGE assay also DU145 and SKOV3); conditions: 80 mg/kg oral daily; tumors removed 4 hr after final dose (day 33)
T3 sequence (Q6PIU2 1-408): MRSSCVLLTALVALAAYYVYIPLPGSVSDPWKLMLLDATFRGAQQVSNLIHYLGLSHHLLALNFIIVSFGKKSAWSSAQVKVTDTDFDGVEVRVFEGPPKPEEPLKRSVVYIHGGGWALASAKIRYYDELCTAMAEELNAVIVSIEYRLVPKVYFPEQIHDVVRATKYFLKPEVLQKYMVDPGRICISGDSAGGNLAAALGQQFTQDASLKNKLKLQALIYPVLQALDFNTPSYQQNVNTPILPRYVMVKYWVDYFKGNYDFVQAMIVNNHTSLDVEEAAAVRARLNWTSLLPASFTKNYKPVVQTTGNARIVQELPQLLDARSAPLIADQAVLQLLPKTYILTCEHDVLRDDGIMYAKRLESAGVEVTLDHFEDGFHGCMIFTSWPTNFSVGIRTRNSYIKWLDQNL
Method: as §1, §2

Row | SMILES | Inhibition of FAAH / selectivity versus FAAH [1] | Selectivity for KIAA1363 in brain proteomes from treated mice (gel-based ABPP) ([2]; 1-80 mg/kg, i.p. or oral, 4 hr) | Dose required to completely inactivate brain KIAA1363 in SCID mice ([2]; immunedeficient SCID mouse strain, oral) [mg/kg] | Dose giving complete inhibition of brain KIAA1363, i.p. ([2]; mice, i.p., 4 hr) [mg/kg] | Dose giving complete inhibition of brain KIAA1363, oral ([2]; normal mice, oral, 4 hr) [mg/kg] | Duration of KIAA1363 inhibition in vivo ([2]; single administration 20 mg/kg, oral) | PC3 tumor growth [3] | KIAA1363 activity in explanted tumors [4]
1 | COc1ccc(CNC(=O)Oc2cccc3c2OC(C)(C)C3)cc1 [JW148, 2,2-dimethyl-2,3-dihydrobenzofuran-7-yl 4-methoxybenzylcarbamate] | good selectivity |  |  |  |  |  |  | 
2 | CC(C)c1ccccc1OC(=O)NCCc1ccc2ccccc2c1 [JW480, 2-isopropylphenyl (2-(naphthalen-2-yl)ethyl)carbamate] |  | excellent selectivity | 80 | 5 | 20 | up to 24 hr | significantly impaired | completely ablated
